Source: patent publication US11572590B2, “Methods for evaluating tumor cell spheroids using 3D microfluidic cell culture device” (Dana-Farber Cancer Institute, Inc., priority 2017, dated 2023)
Read-outs that look alike come from different tables or passages of the source.

Columns and labels:
Assay in all cases: SelectScreen Kinase Profiling, single point inhibition and IC50 for off-target kinases
Format in all cases: biochemical
off-target kinases [1] = biological target: off-target kinases (Homo sapiens, UniProt Q04759); details: PRKCQ (PKC theta); Cmpd1 1000 μM; ATP Km app; ZLYTE
off-target kinases (Homo sapiens, UniProt Q04759), sequence (Q04759 whole entry): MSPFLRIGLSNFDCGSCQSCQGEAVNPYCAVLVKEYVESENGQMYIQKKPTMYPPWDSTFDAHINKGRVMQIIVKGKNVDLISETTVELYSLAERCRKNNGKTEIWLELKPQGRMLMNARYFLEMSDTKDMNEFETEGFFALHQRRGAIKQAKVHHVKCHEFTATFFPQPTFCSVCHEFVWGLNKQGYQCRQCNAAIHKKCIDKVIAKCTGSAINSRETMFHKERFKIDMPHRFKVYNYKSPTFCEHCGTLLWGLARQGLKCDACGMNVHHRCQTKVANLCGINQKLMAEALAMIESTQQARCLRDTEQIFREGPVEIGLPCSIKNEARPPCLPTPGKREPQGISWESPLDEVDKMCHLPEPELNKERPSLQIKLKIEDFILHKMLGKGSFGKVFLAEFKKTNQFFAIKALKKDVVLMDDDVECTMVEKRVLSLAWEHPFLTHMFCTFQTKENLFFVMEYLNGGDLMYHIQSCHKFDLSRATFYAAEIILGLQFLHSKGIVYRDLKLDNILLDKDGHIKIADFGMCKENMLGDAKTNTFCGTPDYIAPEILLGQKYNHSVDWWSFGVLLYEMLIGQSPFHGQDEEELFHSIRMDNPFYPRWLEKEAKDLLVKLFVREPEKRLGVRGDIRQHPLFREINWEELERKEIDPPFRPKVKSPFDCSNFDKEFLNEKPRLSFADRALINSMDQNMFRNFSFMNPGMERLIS

off-target kinases [2] = biological target: off-target kinases (Homo sapiens, UniProt P29376); details: LTK (TYK1), ZLYTE, ATP Km app
off-target kinases (Homo sapiens, UniProt P29376), sequence (P29376 17-864): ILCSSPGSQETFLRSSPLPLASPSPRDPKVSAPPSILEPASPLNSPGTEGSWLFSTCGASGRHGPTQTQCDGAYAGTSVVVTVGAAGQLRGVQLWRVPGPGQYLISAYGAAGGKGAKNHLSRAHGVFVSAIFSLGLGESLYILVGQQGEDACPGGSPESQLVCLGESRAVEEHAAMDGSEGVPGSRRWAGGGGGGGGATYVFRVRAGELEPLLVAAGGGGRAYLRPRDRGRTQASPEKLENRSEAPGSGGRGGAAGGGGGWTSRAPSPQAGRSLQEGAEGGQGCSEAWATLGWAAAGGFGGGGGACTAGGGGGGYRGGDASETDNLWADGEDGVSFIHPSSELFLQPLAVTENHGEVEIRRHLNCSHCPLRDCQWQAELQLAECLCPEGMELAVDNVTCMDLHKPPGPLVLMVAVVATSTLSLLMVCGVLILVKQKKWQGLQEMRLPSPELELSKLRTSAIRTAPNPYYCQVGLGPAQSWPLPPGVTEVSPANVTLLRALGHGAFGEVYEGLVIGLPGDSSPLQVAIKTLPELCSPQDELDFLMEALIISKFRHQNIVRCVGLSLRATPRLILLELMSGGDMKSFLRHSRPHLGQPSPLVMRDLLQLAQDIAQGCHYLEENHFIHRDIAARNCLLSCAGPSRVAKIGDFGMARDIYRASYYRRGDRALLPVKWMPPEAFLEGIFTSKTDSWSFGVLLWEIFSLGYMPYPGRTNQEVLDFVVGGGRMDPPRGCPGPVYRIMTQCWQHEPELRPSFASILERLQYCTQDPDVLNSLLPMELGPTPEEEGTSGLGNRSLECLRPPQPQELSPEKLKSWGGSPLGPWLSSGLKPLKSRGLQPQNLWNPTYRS

off-target kinases [3] = biological target: T1, off-target kinases (Homo sapiens, UniProt P51813); details: BMX, ZLYTE, ATP Km app
T1 sequence (P51813 1-675): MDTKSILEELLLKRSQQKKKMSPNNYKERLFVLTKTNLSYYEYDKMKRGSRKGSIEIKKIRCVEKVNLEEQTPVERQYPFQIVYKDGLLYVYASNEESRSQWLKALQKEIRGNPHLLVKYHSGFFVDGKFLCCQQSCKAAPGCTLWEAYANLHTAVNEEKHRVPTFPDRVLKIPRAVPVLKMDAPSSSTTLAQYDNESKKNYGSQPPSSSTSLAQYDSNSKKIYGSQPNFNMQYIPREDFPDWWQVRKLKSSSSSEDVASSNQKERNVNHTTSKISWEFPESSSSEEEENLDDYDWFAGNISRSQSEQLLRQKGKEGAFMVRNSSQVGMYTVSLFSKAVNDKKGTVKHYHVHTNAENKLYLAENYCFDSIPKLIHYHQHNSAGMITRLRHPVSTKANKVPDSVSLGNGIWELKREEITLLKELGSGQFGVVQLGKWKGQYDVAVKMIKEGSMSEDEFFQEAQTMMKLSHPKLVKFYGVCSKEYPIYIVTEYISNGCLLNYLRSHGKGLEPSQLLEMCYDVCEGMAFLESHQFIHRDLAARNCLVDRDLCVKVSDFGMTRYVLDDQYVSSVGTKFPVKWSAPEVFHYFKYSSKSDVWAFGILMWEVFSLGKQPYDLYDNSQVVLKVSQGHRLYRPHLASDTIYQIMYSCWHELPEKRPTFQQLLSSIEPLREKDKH

off-target kinases [4] = biological target: T2, off-target kinases (Homo sapiens, UniProt Q9NR20)
T2 sequence (Q9NR20 1-520): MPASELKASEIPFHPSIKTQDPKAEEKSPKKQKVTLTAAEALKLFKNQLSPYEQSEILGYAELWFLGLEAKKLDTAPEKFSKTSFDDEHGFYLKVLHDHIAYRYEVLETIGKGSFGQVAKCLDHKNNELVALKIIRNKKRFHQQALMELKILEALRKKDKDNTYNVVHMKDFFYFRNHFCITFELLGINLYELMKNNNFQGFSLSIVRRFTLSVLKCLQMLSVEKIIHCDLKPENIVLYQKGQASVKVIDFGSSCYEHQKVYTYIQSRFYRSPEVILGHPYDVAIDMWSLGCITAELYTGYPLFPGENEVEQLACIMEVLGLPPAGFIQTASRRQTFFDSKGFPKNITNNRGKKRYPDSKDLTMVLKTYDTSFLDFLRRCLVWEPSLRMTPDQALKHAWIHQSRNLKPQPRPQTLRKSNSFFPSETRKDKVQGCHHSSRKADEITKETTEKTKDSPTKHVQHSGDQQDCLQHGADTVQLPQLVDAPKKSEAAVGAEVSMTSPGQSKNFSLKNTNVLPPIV

off-target kinases [5] = biological target: off-target kinases (Homo sapiens, UniProt Q9H0K1); details: SNF1LK2, ATP Km app, ZLYTE
off-target kinases (Homo sapiens, UniProt Q9H0K1), sequence (Q9H0K1 whole entry): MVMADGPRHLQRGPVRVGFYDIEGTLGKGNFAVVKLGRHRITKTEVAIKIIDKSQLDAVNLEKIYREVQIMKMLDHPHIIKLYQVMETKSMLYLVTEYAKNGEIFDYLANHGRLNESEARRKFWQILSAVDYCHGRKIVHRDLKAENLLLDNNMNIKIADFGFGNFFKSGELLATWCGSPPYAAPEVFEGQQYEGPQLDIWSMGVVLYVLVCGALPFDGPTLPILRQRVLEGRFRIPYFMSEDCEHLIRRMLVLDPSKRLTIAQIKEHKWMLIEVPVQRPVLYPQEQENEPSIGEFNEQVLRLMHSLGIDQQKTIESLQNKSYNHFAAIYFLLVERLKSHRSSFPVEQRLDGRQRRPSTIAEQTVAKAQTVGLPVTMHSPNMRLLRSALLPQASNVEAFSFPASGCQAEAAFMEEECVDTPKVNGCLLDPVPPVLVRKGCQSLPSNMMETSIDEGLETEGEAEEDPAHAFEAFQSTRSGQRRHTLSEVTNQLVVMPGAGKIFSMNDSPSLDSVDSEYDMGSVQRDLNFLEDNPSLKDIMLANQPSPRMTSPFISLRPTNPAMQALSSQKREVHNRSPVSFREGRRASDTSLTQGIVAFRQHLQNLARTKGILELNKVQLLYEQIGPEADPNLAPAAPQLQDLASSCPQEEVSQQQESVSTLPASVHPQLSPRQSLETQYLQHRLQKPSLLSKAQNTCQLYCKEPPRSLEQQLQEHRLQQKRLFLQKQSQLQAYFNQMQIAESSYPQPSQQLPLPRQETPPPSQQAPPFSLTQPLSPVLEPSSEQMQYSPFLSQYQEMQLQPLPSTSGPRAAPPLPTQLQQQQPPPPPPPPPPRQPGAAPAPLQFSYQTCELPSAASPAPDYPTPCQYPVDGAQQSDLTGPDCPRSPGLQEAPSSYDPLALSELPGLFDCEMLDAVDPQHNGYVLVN

N#Cc1cc(-c2ncnc(Nc3ccc(N4CCN(C5COC5)CC4)cc3)n2)ccc1OC1CCOCC1 [Compound 1, 5-(4-((4-(4-(oxetan-3-yl)piperazin-1-yl)phenyl)amino)-1,3,5-triazin-2-yl)-2-((tetrahydro-2H-pyran-4-yl)oxy)benzonitrile]
% Inhibition 1 (off-target kinases [1]): −6%
% Inhibition 2 (off-target kinases [1]): −17%
% Inhibition Avg (off-target kinases [1]): −12%
inhibition (off-target kinases [2]; read-out: % Inhibition 1): 5%
inhibition (off-target kinases [2]; read-out: % Inhibition 2): 7%
inhibition (off-target kinases [2]; read-out: % Inhibition Avg): 6%
inhibition (off-target kinases [3]; read-out: % Inhibition 1): 12%
inhibition (off-target kinases [3]; read-out: % Inhibition 2): 13%
inhibition (off-target kinases [3]; read-out: % Inhibition Avg): 12%
inhibition (off-target kinases [4]; read-out: % Inhibition 1): -2%
inhibition (off-target kinases [4]; read-out: % Inhibition 2): 0%
inhibition (off-target kinases [4]; read-out: % Inhibition Avg): -1%
inhibition (off-target kinases [5]; read-out: % Inhibition 1): 88%
inhibition (off-target kinases [5]; read-out: % Inhibition 2): 88%
inhibition (off-target kinases [5]; read-out: % Inhibition Avg): 88%
